In patent US10897891B2, “Compositions and methods for prolonged cell storage” (Board of Regents, The University of Texas System, priority 2015, dated 2021):
Several values for one entry are separate records, joined by “and”; a condition that tells them apart may be missing. Identical values can stand only once.

Key:
platelets = assay: Epinephrine induced platelet aggregation following cold storage (OD 690 nm, Experiment C); type: cell-based, human; conditions: 2% PEG-400, 5° C. for 7 days
Experimental: Platelet aggregation using epinephrine. Ten ml of 24 hr old platelet residual was derived from one platelet unit and split into two 5 ml aliquots in 50 ml tubes. One sample received 10% phosphate buffered saline (PBS) and one 10% PBS containing PEG400 such that the final PEG concentration was 2%. These samples were placed on a flat-bed rotator with a 1 inch stroke, at 70 cycles per min, at 5° C. for 7 days. 100 ul of these platelet suspensions were added to wells of a 96 well U bottom plate. Epinephrine 0.1 mg/ml (Pharmaceutical NDC 0409-4921-34-44-048-DK) was diluted with PBS and 100 ul was added to test wells to give a finial concentration of 10 mcg/ml. The plate was rotated overnight to allow aggregation. The extent of aggregation was read using an ELISA plate reader (Molecular Devises, Vmax) at 690 nm wavelength. Platelets, with and without PEG, were also aggregated by the addition of 10% H2O2. […] Table 3 presents additional cryoprotective agents scored for the effect on microscopic degranulation (20× high contrast lighting as above).
Fresh donor platelets were supplemented with PBS or PBS 2% PEG-400 as described in the methods, and incubated at 5° C. for 7 days. These control and test samples were then loaded side by side on a 96 well plate (ensuring that test and control reading would be made simultaneously). […]

[1] = tested on: stored human platelets in thrombocytopenic CD-1 outbred mice; assay: Platelet storage vs platelet function in a mouse model of thrombocytopenia (tail vein bleeding, blotter weight); type: in vivo; conditions: for Weight of blood after tail vein cut, single animals: 1% PEG-400 in PBS, platelets stored at room temp.
Experimental: Fresh human platelets were obtained from the blood bank. These were pooled, mixed and divided twice to give 4 (new) platelet bags with 65 ml (+/−5 ml) in each. Next sterile PBS/PEG mixtures were made by adding filter sterilized PEG-400 (30% in PBS) serially diluting 1:4. (14 ml PBS+6 ml of PEG400=30% PEG, serially 1:4 diluted with PBS to give 7.5% PEG400, and 1.9% PEG400). Then, 10 ml of PBS or PBS/PEG was added into each platelet bag as follows: 10 ml PBS is 0 control=A; 10 ml of 1.9 is 0.25% peg final in platelets (a low dose tolerated by whole animal see below)=B; 10 ml of 7.5% gives 1% PEG-400 final (the max PEG400 dose tolerated by whole animal see below), =C; 10 ml of 30% gives 4% about 4 times the max dose tolerated in rhesus monkeys. Units were held at room temp 70 cycles/min, 1 inch stroke). The platelet units were confirmed to be negative for bacterial growth using 3 ml the platelet suspensions in Bactec blood culture bottles at 72 hr.
CD-1 outbred mice were obtained from Harlan Laboratories. All animals were pretreated with a 0.5 ml IP dose of 185 ug/mouse of filter sterilized fresh acetylsalicylic acid (aspirin) in PBS buffer. Fresh aspirin was used. Salicylate is the active metabolite responsible for most anti-inflammatory and analgesic effects; however, acetylsalicylate is the active moiety for the antiplatelet-aggregation effect and is rapidly hydrolyzed in water. On the following day all mice were given 3 U (heparin equivalents)/animal Lovenox (Enoxaparin Sodium Injection). After a 2 hr period for Lovenox to take full effect, the animals were given 100 ul platelets by IV tail vein injection, the platelets were allowed to circulate […] and the tail vein cut 1 cm from the tip with a new scapula for each animal. Bleeding was measured by collecting drops of blood for exactly 5 min on pre-weighed blotter paper Whatmen-40. The blotters were then weighed and these weights were compared using unpaired t test statistics. Platelets having an excessive amount of RBC in the units were sedimented under gravity in a 50 ml tube for 30 min and only the top 5 ml was harvested into a second 50 ml tube used for injection.)
Briefly, the animal model experiments were performed as follows. Fresh human platelets were obtained from a blood bank, consisting of 3 ABO ‘O’ units and 2 ABO ‘A’ units. These were pooled, mixed and divided twice to give 4 (new) platelet bags with 75 ml (+/−5 ml) in each. Next sterile PBS/PEG mixtures were made by adding filter sterilized PEG-400 (30% in PBS) serially diluting 1:4. (14 ml PBS+6 ml of PEG=30% PEG, serial ¼ diluted with PBS to give 7.5% PEG, and 1.9% PEG400). 10 ml of PBS or PBS/PEG was then added to each platelet bag as follows. […] Units were held at room temp 140 cycles/min, 0.5 inch stroke). The platelet units were confirmed as negative for bacterial growth using 3 ml in Bactec blood culture bottles at 72 hr.
CD-1 outbred mice were obtained from Harlan Laboratories. All animals were pretreated with a 0.5 ml IP dose of 185 μg/mouse of filter sterilized fresh acetylsalicylic acid in PBS buffer. On the following day all mice were given 3 U (heparin equivalents)/animal Lovenox. (Note: Aspirin was fresh. Salicylate is the active metabolite responsible for most anti-inflammatory and analgesic effects; however, acetylsalicylate is the active moiety for the antiplatelet-aggregation effect and is rapidly hydrolyzed in water. After a 2 hr period for Lovenox effect the animals were given 100 ul platelets by IV tail vein injection, the platelets were allowed to circulate 30 min and the tail vein cut 1 cm from tip with a new scapula for each animal. Bleeding was measured by collecting drops of blood for exactly 5 min on pre-weighed blotter paper Whatmen-40. The blotters were then weighed and these weights were compared using unpaired t test statistics. […]

## Polyethylene glycol [PEG-400]
platelets
  initial aggregation in the stored state (baseline OD 690 nm, no epinephrine): less initial aggregation in the stored state
platelets; 0 vs 10 μg epinephrine
  aggregation response to epinephrine challenge (OD 690 nm): significant aggregation response to epinephrine
[1]; 1% PEG-400, room temp. storage 11-13 days, N = 9
  Weight of blood after tail vein cut, mean (X) of combined data: X = 0.043 grams
[1]; 1% PEG-400, room temp. storage, day 11-13
  activity of stored platelets: active
[1]; 1% PEG-400, room temp., combined day 11 and day 13 data
  clotting vs standard platelet storage condition: significantly more clotting
[1]; Mar. 11, 2014 group
  Weight of blood after tail vein cut, single animals: .06 grams and .04 grams and .05 grams
[1]; Mar. 13, 2014 group
  Weight of blood after tail vein cut, single animals: .05 grams and .03 grams and .02 grams
[1]; May 23, 2014 group
  Weight of blood after tail vein cut, single animals: .04 grams (2×) and .06 grams
